According to patent US20130281362A1, “ANTIVIRAL AGENT” (priority 2011, published 2013):

Tested on: influenza A virus strain A/Aichi/02/68 (H3N2)
Parameters: species or system non-inbred male white mice
Details: mouse, in vivo, 60 mg/kg

CCOC(=O)c1c(CSc2ccccc2)n(C)c2cc(Br)c(O)c(CN(C)C)c12 [Arbidol 970609]
Death rate: 10/15 | Increase in MST: 2.6 days | MST: 9.3 days | Protection against death (%): 33.3%
